The target of one data set is Protein Wnt-3a (Mus musculus, UniProt P27467). As to the kind of experiment: antagonism of Wnt3a pathway luciferase reporter – Wnt-LIGHT cells, luminescence, selectivity assay for Gli-SUFU antagonist project, dose response (AID 651570).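 Also: Wnt-LIGHT reporter cells stimulated with conditioned medium from Wnt3a-producing cells.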 The format is functional. The note with it: read-out: IC50_Mean.
For data set [1], the target named is T1, Mannose-6-phosphate isomerase (Homo sapiens, UniProt P34949).
T1 sequence (P34949 whole entry): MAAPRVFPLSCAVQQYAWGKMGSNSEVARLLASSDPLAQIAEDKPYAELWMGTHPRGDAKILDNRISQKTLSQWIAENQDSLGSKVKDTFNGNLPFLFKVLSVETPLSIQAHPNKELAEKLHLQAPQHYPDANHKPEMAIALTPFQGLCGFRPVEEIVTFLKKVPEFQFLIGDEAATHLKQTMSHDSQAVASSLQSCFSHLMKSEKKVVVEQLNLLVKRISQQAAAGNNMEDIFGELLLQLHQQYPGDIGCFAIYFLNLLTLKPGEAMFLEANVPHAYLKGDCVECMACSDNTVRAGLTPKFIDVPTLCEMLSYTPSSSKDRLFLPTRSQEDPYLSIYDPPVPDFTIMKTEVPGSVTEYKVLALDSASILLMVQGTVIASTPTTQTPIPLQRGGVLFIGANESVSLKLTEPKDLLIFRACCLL
Nature of the data set: phosphomannose isomerase inhibition – biochemical, fluorescence intensity, confirmation (AID 1535).

A short description of data set [2]: reduction of Shn3 3'UTR-driven luciferase in osteoblasts – cell-based, Clone20 osteoblasts, firefly luciferase, cherry-picked, dose response (AID 624132).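 Also: firefly luciferase luminescence from reporter carrying the Shn3 3'UTR in osteoblasts.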 The format is functional.
Data set [3] can be described thus: non-specific 3'UTR reporter inhibition in Clone20-Shn3RL – cell-based, Renilla luciferase, cherry-picked, counter-screen for Shn3 inhibitor project, dose response (AID 624133). The format is functional. A general note: Counterscreens check selectivity or assay interference.
In data set [4] the target is Dual specificity tyrosine-phosphorylation-regulated kinase 1A (Rattus norvegicus, UniProt Q63470). In kind it is biochemical, Homo sapiens.
A short description of data set [5]: MIN6 cell viability loss – mouse insulinoma, cytotoxicity control, dose response (AID 2122).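 Also: confirmatory high-throughput counterscreen run to flag cytotoxic compounds.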 The format is functional.
Data set [6] can be described thus: Trypanosoma cruzi growth suppression in host cells – NIH3T3 host cells, beta-gal luminescence, confirmation (AID 2044).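 Also: intracellular parasites grown in NIH/3T3 mouse fibroblasts as host cells; luminescent beta-galactosidase reporter signal from transgenic T. cruzi replicating inside host cells; inhibitors lower the luminescence signal.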 In kind it is functional, cell-based.
Data set [7] in a line: NIH3T3 cell viability loss – ATP luminescence, mouse fibroblasts, counter-screen, dose response (AID 2010).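 Also: cells exposed to compound for about 90 hours before reading.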 The format is functional, cell-based.
A short description of data set [8]: decrease of insulin promoter-GFP reporter – imaging, high-content screening, mouse beta cells (AID 1628). The format is functional. Particulars: MIN6.
Another data set has as its system INS1. Nature of the data set: INS-1E survival protection against cytokine death – cell-based, luminescence, retest, dose response (AID 449756).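 Also: cell death triggered by IL-1 beta plus TNF-alpha plus IFN-gamma mixture; protective hits raise ATP signal compared with cytokine alone wells.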 In kind it is functional. The note with it: Rattus norvegicus.
Data set [9] deals with T2, Microphthalmia-associated transcription factor (Homo sapiens, UniProt O75030).
T2 sequence (O75030 whole entry): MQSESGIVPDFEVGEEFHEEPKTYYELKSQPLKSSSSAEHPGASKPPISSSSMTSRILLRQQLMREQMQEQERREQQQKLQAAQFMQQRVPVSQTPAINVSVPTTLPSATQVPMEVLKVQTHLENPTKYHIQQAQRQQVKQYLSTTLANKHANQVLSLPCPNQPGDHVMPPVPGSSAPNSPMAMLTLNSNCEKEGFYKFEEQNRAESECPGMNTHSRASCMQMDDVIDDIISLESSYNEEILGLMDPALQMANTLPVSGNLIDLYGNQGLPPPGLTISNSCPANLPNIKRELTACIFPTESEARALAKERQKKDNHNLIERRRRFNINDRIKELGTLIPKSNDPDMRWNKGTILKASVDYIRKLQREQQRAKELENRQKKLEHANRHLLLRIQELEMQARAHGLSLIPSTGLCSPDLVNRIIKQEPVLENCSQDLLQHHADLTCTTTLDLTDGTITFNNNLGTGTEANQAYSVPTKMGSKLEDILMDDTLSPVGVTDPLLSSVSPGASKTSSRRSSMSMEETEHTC
Nature of the data set: reducers of TRPM1 reporter luminescence, concentration series – cell-based, SK-MEL-5, cherry-picked, set 3, MITF inhibitor project, dose response (AID 493073).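 Also: SK-MEL-5 melanoma cells with luciferase driven by the MITF target TRPM1 promoter.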 The format is functional.

The target in data set [10] is E3 ubiquitin-protein ligase Mdm2 (Homo sapiens, UniProt Q00987). Nature of the data set: MDM2-luc reporter signal enhancers, multi-concentration potency testing, MDM2 ubiquitin-protein ligase inhibitor program, whole-cell format, luminescence detection, 384-well microplate (AID 1394).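 Also: MDM2 E3 inhibitors raise luminescence so EC50 is for signal enhancement.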 In kind it is functional.
E3 ubiquitin-protein ligase Mdm2, sequence (Q00987 whole entry): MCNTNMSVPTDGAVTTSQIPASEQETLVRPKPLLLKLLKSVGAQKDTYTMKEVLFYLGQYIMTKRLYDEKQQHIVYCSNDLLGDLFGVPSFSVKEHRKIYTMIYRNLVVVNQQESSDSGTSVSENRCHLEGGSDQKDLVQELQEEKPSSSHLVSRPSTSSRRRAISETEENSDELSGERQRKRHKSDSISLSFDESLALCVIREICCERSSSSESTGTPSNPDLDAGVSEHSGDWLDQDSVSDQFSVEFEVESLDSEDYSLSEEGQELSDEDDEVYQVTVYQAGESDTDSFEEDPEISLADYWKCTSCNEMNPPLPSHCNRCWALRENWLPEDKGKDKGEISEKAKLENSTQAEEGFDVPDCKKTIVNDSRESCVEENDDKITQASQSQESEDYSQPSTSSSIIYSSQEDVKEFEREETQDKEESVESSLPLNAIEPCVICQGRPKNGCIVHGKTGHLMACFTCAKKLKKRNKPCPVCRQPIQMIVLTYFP
Data set [11] addresses Glucose-6-phosphate 1-dehydrogenase (Homo sapiens, UniProt P11413). As to the kind of experiment: inhibition of Homo sapiens G6PD, dose series – biochemical, fluorescence, selectivity assay for P. falciparum G6PD inhibitor project, dose response (AID 504792). In kind it is functional.
Data set [12] deals with T3, Probable nicotinate-nucleotide adenylyltransferase (Staphylococcus aureus (strain N315), UniProt P65502). In kind it is functional, Staphylococcus aureus subsp. aureus N315. The note with it: read-out: IC50_Mean.
T3 sequence (P65502 whole entry): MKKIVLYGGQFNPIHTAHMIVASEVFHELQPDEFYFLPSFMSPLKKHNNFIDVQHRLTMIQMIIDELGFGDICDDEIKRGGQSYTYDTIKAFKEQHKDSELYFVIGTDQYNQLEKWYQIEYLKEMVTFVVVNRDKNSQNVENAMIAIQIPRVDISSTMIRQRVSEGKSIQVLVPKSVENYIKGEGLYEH
The target of data set [13] is T3, Probable nicotinate-nucleotide adenylyltransferase. In kind it is functional, Staphylococcus aureus subsp. aureus N315.
A further data set addresses Cytochrome P450 2D6 (Homo sapiens, UniProt P10635).
In data set [14] the target is DNA dC->dU-editing enzyme APOBEC-3G (Homo sapiens, UniProt Q9HC16). Nature of the data set: inhibition of APOBEC3G ssDNA deamination – biochemical, fluorescence, single-stranded DNA substrate, SAR follow-up (AID 602136). The format is functional. Particulars: read-out: IC50_Mean.
DNA dC->dU-editing enzyme APOBEC-3G, sequence (Q9HC16 whole entry): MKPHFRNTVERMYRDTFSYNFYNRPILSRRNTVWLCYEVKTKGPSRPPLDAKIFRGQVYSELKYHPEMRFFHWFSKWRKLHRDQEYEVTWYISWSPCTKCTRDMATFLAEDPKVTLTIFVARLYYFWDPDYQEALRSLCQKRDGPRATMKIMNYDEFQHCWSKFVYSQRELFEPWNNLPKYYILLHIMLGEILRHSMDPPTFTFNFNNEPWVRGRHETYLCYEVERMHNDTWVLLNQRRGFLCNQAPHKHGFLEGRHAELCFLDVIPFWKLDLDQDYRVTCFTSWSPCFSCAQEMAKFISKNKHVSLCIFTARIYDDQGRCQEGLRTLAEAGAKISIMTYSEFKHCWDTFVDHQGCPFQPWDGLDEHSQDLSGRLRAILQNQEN
The target of data set [15] is DNA dC->dU-editing enzyme APOBEC-3A (Homo sapiens, UniProt P31941). As to the kind of experiment: SAR analysis of small molecule inhibitors of APOBEC3A DNA Deaminase via a fluorescence-based single-stranded DNA deaminase assay. Particulars: read-out: IC50_Mean. The format is functional.
DNA dC->dU-editing enzyme APOBEC-3A, sequence (P31941 whole entry): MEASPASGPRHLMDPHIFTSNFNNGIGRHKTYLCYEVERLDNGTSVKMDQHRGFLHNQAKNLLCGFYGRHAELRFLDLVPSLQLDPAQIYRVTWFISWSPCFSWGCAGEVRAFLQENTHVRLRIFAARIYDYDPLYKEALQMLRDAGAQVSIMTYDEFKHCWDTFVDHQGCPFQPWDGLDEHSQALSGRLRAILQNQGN
A further data set concerns the target Cytochrome P450 3A4 (Homo sapiens, UniProt P08684).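 Also: CYP3A4 tested as one member of a cytochrome P450 panel screen.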
Data set [16] can be described thus: microbe, parasite or virus in culture. The note with it: Mycobacterium tuberculosis. In kind it is functional.
The test system of the next data set is HEK293. As to the kind of experiment: EBV LMP1 TES2 canonical NF-kB signalling blockers – cell-based, HEK293, luciferase, cherry-pick, dose response (AID 588343). The note with it: Homo sapiens. In kind it is functional.
The target in data set [17] is T4, DNA repair and recombination protein RAD54-like (Homo sapiens, UniProt Q92698).
T4 sequence (Q92698 whole entry): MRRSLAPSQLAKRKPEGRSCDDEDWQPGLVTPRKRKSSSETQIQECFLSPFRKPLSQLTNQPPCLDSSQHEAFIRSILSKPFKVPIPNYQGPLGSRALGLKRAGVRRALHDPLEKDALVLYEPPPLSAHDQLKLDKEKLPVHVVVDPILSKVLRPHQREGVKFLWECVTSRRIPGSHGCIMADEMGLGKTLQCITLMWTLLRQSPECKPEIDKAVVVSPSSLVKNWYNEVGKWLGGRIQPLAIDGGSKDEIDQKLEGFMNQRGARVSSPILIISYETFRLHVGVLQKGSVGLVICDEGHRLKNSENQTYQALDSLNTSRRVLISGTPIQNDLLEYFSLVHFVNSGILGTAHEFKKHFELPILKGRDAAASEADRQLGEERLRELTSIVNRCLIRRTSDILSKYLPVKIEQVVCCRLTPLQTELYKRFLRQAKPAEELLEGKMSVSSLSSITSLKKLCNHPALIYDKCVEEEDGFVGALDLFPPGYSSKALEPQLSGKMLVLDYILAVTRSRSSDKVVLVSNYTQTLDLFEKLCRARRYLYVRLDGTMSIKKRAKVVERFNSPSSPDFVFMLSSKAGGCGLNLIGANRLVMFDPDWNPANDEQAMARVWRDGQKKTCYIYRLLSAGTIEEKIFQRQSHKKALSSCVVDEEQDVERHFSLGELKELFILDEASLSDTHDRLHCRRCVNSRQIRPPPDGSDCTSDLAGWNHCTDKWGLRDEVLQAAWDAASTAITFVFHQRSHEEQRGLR
Nature of the data set: RAD54 Holliday junction migration blockers – biochemical, fluorescence, cherry-picked samples, dose series, confirmation (AID 651657). In kind it is functional.

Calls of active or inactive are those of the source.

Broadly, the AC50 is the midpoint of the concentration-response curve, whichever way the signal moves. The term EC50 denotes the concentration that produces a half-maximal response.

Protein Wnt-3a, sequence (P27467 whole entry): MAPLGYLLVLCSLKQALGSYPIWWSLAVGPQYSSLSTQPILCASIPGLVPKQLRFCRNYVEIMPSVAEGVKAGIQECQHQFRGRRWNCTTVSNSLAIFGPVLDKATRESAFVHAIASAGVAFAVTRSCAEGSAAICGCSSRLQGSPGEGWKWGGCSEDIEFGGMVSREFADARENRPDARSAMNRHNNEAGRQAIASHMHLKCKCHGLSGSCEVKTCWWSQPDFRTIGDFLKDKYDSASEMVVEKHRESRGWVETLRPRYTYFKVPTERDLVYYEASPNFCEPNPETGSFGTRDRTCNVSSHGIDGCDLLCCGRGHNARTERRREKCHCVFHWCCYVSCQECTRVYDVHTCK
Cytochrome P450 2D6, sequence (P10635 whole entry): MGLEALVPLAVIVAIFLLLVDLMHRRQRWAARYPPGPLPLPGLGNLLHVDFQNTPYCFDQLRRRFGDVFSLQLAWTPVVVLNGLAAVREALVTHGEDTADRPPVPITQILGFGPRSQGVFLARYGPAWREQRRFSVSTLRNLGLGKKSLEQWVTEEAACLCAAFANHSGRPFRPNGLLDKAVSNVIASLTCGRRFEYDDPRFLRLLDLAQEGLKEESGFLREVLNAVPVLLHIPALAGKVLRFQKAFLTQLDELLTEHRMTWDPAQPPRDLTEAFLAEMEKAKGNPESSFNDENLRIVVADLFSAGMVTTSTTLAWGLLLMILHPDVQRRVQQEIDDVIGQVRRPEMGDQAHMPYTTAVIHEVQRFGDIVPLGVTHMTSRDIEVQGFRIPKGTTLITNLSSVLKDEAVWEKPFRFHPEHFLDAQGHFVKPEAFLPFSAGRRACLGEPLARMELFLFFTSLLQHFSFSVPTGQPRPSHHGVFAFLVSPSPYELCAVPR
Glucose-6-phosphate 1-dehydrogenase, sequence (P11413 whole entry): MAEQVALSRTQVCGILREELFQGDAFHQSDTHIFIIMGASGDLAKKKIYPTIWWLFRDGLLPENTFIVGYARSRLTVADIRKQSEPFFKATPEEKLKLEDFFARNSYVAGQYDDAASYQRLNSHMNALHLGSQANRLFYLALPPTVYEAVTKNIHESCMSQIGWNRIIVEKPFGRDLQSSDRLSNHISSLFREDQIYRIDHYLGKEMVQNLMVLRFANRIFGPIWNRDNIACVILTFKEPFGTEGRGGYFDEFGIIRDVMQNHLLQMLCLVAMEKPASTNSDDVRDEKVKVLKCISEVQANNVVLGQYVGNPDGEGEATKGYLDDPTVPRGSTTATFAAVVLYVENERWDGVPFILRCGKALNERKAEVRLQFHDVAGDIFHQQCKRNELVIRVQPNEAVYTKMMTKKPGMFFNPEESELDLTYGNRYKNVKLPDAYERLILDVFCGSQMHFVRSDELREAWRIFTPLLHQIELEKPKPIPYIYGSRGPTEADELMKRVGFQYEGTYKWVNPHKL
Cytochrome P450 3A4, sequence (P08684 whole entry): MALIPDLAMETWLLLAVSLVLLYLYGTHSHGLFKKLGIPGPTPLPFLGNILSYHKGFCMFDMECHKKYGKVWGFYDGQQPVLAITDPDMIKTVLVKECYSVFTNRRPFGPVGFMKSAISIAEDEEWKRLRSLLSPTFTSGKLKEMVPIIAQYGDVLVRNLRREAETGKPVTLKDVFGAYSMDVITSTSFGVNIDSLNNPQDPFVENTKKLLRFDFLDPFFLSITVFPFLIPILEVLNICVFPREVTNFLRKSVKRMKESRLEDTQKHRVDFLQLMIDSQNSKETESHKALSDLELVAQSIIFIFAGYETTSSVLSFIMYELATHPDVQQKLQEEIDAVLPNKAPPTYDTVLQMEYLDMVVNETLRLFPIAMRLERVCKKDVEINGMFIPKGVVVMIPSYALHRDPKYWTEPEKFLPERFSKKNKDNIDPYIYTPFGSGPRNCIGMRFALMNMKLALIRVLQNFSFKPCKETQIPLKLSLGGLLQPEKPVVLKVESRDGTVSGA

As for `O=C(c1ccc(C(F)(F)F)cc1)C1CCCN(Cc2ccncc2)C1` (stereo unspecified), at Protein Wnt-3a, the IC50 is 5.15 µM (active).
Turning to `Clc1ncccc1/N=c1\ssnc1Cl`, the IC50 in data set [1] is 9.88 µM (active).
Take `CC(C)=CCC/C(C)=C/CNC(=O)C[C@H]1C[C@H](C(=O)N2CCOCC2)[C@@]2(C)c3[nH]c4cc(CCC(=O)N(C)C)ccc4c3CCN2C1=O`: the AC50 in data set [2] was 1.11 µM (active); in [3], 1.33 µM (active). Besides, the IC50 on Protein Wnt-3a was 23.6 µM (inactive).
Regarding `O=C1C(/C=N/Cc2ccncc2)=C(O)c2ccccc21`, the AC50 in data set [4] was 7.11 µM (active).
As for `O=C(Nc1nc2ccc([N+](=O)[O-])cc2s1)c1ccc(S(=O)(=O)N2CCCc3ccccc32)cc1`, the IC50 in data set [5] was 1.46 µM (active); in data set [8], 2.16 µM (active). For the same compound, the EC50 was 2.01 µM (active) in [6] and > 30 µM (not active) in [7]. The AC50 in the data set on INS1 is 3.34 µM (active).
As for `Cc1n[nH]c(NC(=O)/C=C/c2ccccc2)n1`, in [9], the AC50 was 17.8 µM (active). Moreover, the EC50 in data set [10] is 1.09 µM (active).
On to `C[C@H](NC(=O)c1cc2c3ccccc3nc-2c[nH]1)C(=O)O`, for which, in [11], the IC50 was > 80 µM (inactive).
Take `CCc1nnc(NS(=O)(=O)c2ccc(/N=C/c3c(C)nn(-c4ccc(Cl)cc4)c3O)cc2)s1`: the IC50 was 25.5 µM (active) in data set [12] and 6.87 µM (active) in [13].
As to `O=C1CN(/N=C\c2ccc(-c3ccc([N+](=O)[O-])cc3)o2)C([O-])=N1.[Na+]`, the AC50 entry at Cytochrome P450 2D6 was “inactive”.
For the compound `N=c1oc2cc(O)ccc2cc1C(=O)Nc1ccc(F)cc1`, the AC50 in data set [4] is 14.5 µM (active).
On to `COc1ccc(-c2nnc(SCC(=O)N(C)Cc3cccs3)[nH]2)cc1`, for which the IC50 in data set [14] and in data set [15] was > 99 µM (inactive) each time.
`Cc1ccc(C(=O)O/N=C\c2ccc(N3CCCCC3)c([N+](=O)[O-])c2)cc1`: the results for the AC50 result on Cytochrome P450 2D6 and on Cytochrome P450 3A4 were “inconclusive” and 22.4 µM (inconclusive), respectively. Moreover, in data set [16], the CC50 is > 40 µM (active).
For `COc1ccc2c(c1)CCc1c[nH]nc1-2`, the AC50 in [4] was > 120 µM (inactive).
With `CCCCCCCn1c(=N)n(CC(O)c2ccco2)c2ccccc21` (stereo unspecified), the IC50 in data set [5] was 3.55 µM (active); in [8], 1.79 µM (active).
As to `CO[C@@H]1COC(=O)CCC[C@@H](C)[C@H](OC)COC(=O)CCC[C@H]1C`, the AC50 result on Cytochrome P450 2D6 is “inconclusive”.
As to `Cc1cc(O)nc(N=N/C(=N/Nc2ccccc2C)c2ccccc2)n1`, the IC50 in data set [5] was 1.36 µM (active); in [8] it was 1.46 µM (active). Also, the AC50 in the data set with HEK293 is 4.66 µM (active).
Consider `Cc1ccc(-c2nc(NCCCO)c3ccccc3n2)cc1`, for which the AC50 in [17] is 79.6 µM (active).
As to `O=[N+]([O-])c1ccc(/C=N/Nc2ccnc3cc(Cl)ccc23)o1`, the AC50 was 15.3 µM (active) in data set [9] and 9.06 µM (active) in the data set with INS1.
For `Cc1ccc(CN(C)C(=O)CSc2nnc(-c3ccc(F)cc3)n2C)o1`, the IC50 in data set [14] and in data set [15] was > 99 µM (inactive) each time.
Consider `CCCCN1CCc2cc(/C=C3\C(=O)NC(=S)N(C4CC4)C3=O)ccc21`, for which the values for the IC50 in [14] and in data set [15] were 68.2 µM (inactive) and 57.1 µM (inactive), respectively.
Turning to `O=C(N[C@@H]1C/C=C\C[C@@H](CC(=O)N(CCO)Cc2ccccc2)C(=O)NC[C@H](c2ccccc2)OC1=O)OCC1c2ccccc2-c2ccccc21`, the concentration at half-maximal activity (AC50) is 7.04 µM (active) in data set [2] and 4.32 µM (active) in [3]. In addition, the IC50 at Protein Wnt-3a is 8.93 µM (active).
Consider `NCCc1cc(O)c(O)cc1O`, for which, in [11], the IC50 was > 80 µM (inactive).
